Data taken from article PMC6273932, “Xanthium strumarium as an Inhibitor of α-Glucosidase, Protein Tyrosine Phosphatase 1β, Protein Glycation and ABTS^+ for Diabetic and Its Complication” (Molecules, 2016).
Values after ≈ are worked out from the molar mass of the structure shown.

Experiments:
[1] = system: AGEs; parameters: method as in PMID 20118563; details: isolated from the extracts of Erigeron annuus; cited from earlier work
[2] = system: recombinant aldose reductase; details: compounds from X. strumarium; cited from earlier work
[3] = system: advanced glycation end products (AGEs); assay: AGEs inhibitory activity, bovine serum albumin-methylglyoxal assay (fluorescence); format: biochemical
Experimental: The modified procedure of Lee et al. was followed. Bovine serum albumin (10 mg/mL) was incubated with 5 mM methylglyoxal in sodium phosphate buffer (100 mM; pH 7.4). […] All of the reagents and samples were […] by filtration through 0.2 μm membrane filters and the mixture was incubated at 37 °C for 7 days. The fluorescence intensity was measured at an excitation wavelength of 330 nm and an emission wavelength of 410 nm with a LS50B fluorescence spectrometer Perkin-Elmer Ltd., (Buckinghamshire, FLS, UK). Aminoguanidine was also tested as a known inhibitor.

[4] = system: α-glucosidase from Saccharomyces sp.; assay: α-glucosidase inhibitory activity assay (pNPG substrate, absorbance 405 nm); format: biochemical
Text: ^1H- and ^13C-NMR spectra and correlation NMR spectra such as COSY, HMBC, HMQC, and DEPT were obtained from a Bruker Avance DPX 400 (or 600) spectrometer (Berlin, Germany). These were obtained at operating frequencies of 400 MHz (^1H) and 100 (or 150) MHz (^13C) with CD3OD, (CD3)2SO, (CD3)2CO, or D2O and TMS was used as an internal standard; chemical shifts were reported in δ values. The α-glucosidase from Saccharomyces sp. (SSG) was purchased from Wako Pure Chemical Industries Ltd (Tokyo, Japan). […] All other chemicals and reagents used were of analytical grade.
The α-glucosidase inhibitory activity of the extracts and fractions was determined using a modified procedure reported method with a slight modification. The α-glucosidase activity was measured using the substrate p-nitrophenyl-α-D-glucopyranoside (pNPG), which is hydrolyzed by α-glucosidase to release the product p-nitrophenol, a colorant that can be monitored at 405 nm. The initial concentration of the enzyme solution was 0.62 unit/mL in 0.1 M phosphate buffer (pH 6.9) and the initial concentration of the substrate solution was 2 mM in the same phosphate buffer. The enzyme solution was mixed with water and the samples or controls in a clear 96-well microplate (flat bottom) and the reaction was initiated by addition of the substrate to the solution. The plates were incubated at 37 °C for 5 min and the reaction was terminated by the addition of 0.1 M Na2CO3. […] Background absorbance was determined using a non-enzyme control microplate containing the buffer and was subtracted from the absorbance of the samples and controls.

[5] = ABTS^+ radical scavenging activity assay
Experimental: The method described by Li et al. was used with slight modifications. ABTS^+ diammonium salt (2 mM) and potassium persulfate (3.5 mM) were mixed, diluted in distilled water and kept in the dark at room temperature for 24 h before use. After addition of ABTS^+ solution to 10 µL of antioxidant, measurements were recorded at 10 min post reaction. The percentage inhibition of absorbance at 750 nm was calculated and plotted as a function of concentration of antioxidants. Trolox was used as positive control.

[6] = system: rat lens aldose reductase; details: compounds from X. strumarium; cited from earlier work
[7] = biological target: T1, protein tyrosine phosphatase 1β (PTP1β) (Homo sapiens, UniProt P18031); assay: PTP1β inhibitory activity assay (colorimetric kit, IR5 phosphopeptide substrate); format: biochemical
T1 sequence (P18031 1-322 limits assumed): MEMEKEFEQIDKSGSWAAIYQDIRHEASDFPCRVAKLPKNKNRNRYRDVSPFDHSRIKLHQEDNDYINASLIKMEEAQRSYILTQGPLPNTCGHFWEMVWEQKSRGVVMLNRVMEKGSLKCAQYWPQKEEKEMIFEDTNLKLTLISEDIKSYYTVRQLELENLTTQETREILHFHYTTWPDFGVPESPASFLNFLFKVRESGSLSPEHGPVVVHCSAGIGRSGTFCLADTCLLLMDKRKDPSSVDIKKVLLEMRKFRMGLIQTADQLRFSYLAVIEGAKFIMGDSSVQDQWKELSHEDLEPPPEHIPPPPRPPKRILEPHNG
Experimental: PTP1β tyrosine phosphatase drug discovery kit is a colorimetric, non-radioactive assay designed to measure the phosphatase activity of purified PTP1β. […] Following incubation at 37 °C for 30 min, the reaction was terminated with the BIOMOL RED^TM reagent. The amount of […] produced was estimated by measuring the absorbance at 620 nm. The non-enzymatic hydrolysis of the IR5 substrate was corrected by measuring the increase in absorbance at 620 nm obtained in the absence of PTP1β enzyme.

[8] = isolated compounds, - is no activity

IC50 ([3]; isolated compounds): 82.8 µM | IC50 AGEs [3, 8]: 43.96 ± 3.89 µg/mL (≈ 82.9 µM) | Inhibition (%) α-glucosidase ([4]; 2.5 μg/mL): 22.63% | Inhibition (%) α-glucosidase ([4]; 5 μg/mL): 40.00% | Inhibition (%) α-glucosidase ([4]; 12.5 μg/mL): 59.11% | Inhibition (%) α-glucosidase ([4]; 25 μg/mL): 96.50% | IC50 ([4]; isolated compounds): 18.4 µM | IC50 α-glucosidase [4, 8]: 9.78 ± 0.79 µg/mL (≈ 18.4 µM) | fold higher inhibition than positive control acarbose (α-glucosidase) ([4]; ratio of IC50 (μM) values): 31.74 fold | IC50 ([5]; isolated compounds): 6.03 µM | IC50 ABTS^+ radical scavenging [5, 8]: 3.20 ± 0.28 µg/mL (≈ 6.03 µM) | inhibition at 1 µg/mL ([7]; 1 μg/mL): 24% | inhibition at 2.5 µg/mL ([7]; 2.5 μg/mL): 30.7% | inhibition at 5 µg/mL ([7]; 5 μg/mL): 50% | inhibition at 10 µg/mL ([7]; 10 μg/mL, - is no activity): 82.5% | fold higher inhibition than positive control sumarin (PTP1β) ([7]; ratio of IC50 (μM) values): 2.93 fold
Structure (SMILES): COC(=O)[C@]1(O)C[C@@H](OC(=O)/C=C/c2ccc(O)c(O)c2)[C@@H](O)[C@H](OC(=O)/C=C/c2ccc(O)c(O)c2)C1 [compound 6, methyl-3,5-di-O-caffeoylquinic acid]
inhibitory activity on AGEs [1]: strong inhibitory activity | recombinant aldose reductase inhibitory activity [2]: strong | Inhibition (%) AGEs ([3]; 10 μg/mL): 24.24% | Inhibition (%) AGEs ([3]; 20 μg/mL): 34.59% | Inhibition (%) AGEs ([3]; 50 μg/mL): 54.77% | Inhibition (%) AGEs ([3]; 100 μg/mL): 89.47% | fold higher inhibition than positive control aminoguanidine (AGEs) ([3]; ratio of IC50 (μM) values): 17.03 fold | Inhibition (%) ABTS^+ ([5]; 0.33 μg/mL): 7.49% | Inhibition (%) ABTS^+ ([5]; 1.66 μg/mL): 33.69% | Inhibition (%) ABTS^+ ([5]; 8.33 μg/mL): 98.31% | fold higher inhibition than positive control trolox (ABTS^+) ([5]; ratio of IC50 (μM) values): 4.93 fold | rat lens aldose reductase inhibitory activity [6]: strong
